In patent US11051515B2, “3-acyl-benzamides and their use as herbicides” (Bayer Aktiengesellschaft, priority 2017, dated 2021):

What was measured:
[1] = system: ALOMY; experiment: Pre-emergence action against ALOMY; assay type: in vivo, Alopecurus myosuroides; conditions: for pest or weed control at 320 g/ha: Alopecurus myosuroides, 504 h, dosage 320 g/ha, pre-emergence, scored visually after 3 weeks vs untreated controls, 100% = plants have died, 0% = like control plants, read-out: Pre-emergence action against ALOMY (herbicidal activity in percent); for Herbicidal efficacy against ALOMY: 80 g of a.i./ha
Summary of the method: (§1)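 Seeds sown in sandy loam in wood-fiber pots and covered with soil. Greenhouse growth; visual damage scored after 3 weeks versus untreated controls (100% = dead, 0% = like control).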

[2] = system: ECHCG; experiment: Post-emergence action against ECHCG; assay type: in vivo, Echinochloa crus-galli; conditions: for pest or weed control at 80 g/ha: Echinochloa crus-galli, 504 h, post-emergence, dosage 80 g/ha, visual assessment about 3 weeks after treatment vs untreated controls, read-out: Post-emergence action against ECHCG (herbicidal action in percent); for Herbicidal efficacy against ECHCG: Table V16, post-emergence
Summary of the method: (§2)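 Weeds grown in sandy loam in greenhouse, treated at one-leaf stage (2–3 weeks after sowing) with WP or EC formulations sprayed as aqueous suspension/emulsion at 600 to […] water with 0.2% wetting agent. Visual rating after about 3 weeks versus untreated controls, as % herbicidal action (100% = plants dead, 0% = like control).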

[3] = system: AMARE; experiment: Post-emergence action against AMARE; assay type: in vivo, Amaranthus retroflexus; conditions: for pest or weed control at 80 g/ha: Amaranthus retroflexus, 504 h, post-emergence, dosage 80 g/ha, visual assessment about 3 weeks after treatment vs untreated controls, read-out: Post-emergence action against AMARE (herbicidal action in percent); for Herbicidal efficacy against AMARE: 5 g of a.i./ha
Summary of the method: as §2

[4] = system: LOLMU; experiment: Post-emergence action against LOLMU; assay type: in vivo, Lolium multiflorum; conditions: Lolium multiflorum, 504 h, dosage 80 g/ha, visual assessment about 3 weeks after treatment vs untreated controls, read-out: Post-emergence action against LOLMU (herbicidal action in percent)
Summary of the method: as §2

[5] = system: CYPES; experiment: Pre-emergence action against CYPES; assay type: in vivo, Cyperus esculentus; conditions: for pest or weed control at 320 g/ha: Cyperus esculentus, 504 h, pre-emergence, dosage 320 g/ha, scored visually after 3 weeks vs untreated controls, read-out: Pre-emergence action against CYPES (herbicidal activity); for Herbicidal efficacy against CYPES: 80 g of a.i./ha
Summary of the method: as §1

[6] = system: POLCO; experiment: Pre-emergence action against POLCO; assay type: in vivo, Polygonum convolvulus; conditions: for Herbicidal efficacy against POLCO: 80 g of a.i./ha; for pest or weed control at 320 g/ha: Fallopia convolvulus, 504 h, Dosage 320 g/ha, pre-emergence
Summary of the method: as §1

[7] = system: SETVI; experiment: Pre-emergence action against SETVI; assay type: in vivo, Setaria viridis; conditions: for pest or weed control at 320 g/ha: Setaria viridis, 504 h, pre-emergence, dosage 320 g/ha, scored visually after 3 weeks vs untreated controls, read-out: SETVI (Table B8, pre-emergence herbicidal activity)
Summary of the method: as §1

[8] = system: DIGSA; experiment: Post-emergence action against DIGSA; assay type: in vivo, Digitaria sanguinalis; conditions: dosage 80 g/ha, visual assessment about 3 weeks after treatment vs untreated controls
Summary of the method: as §2

[9] = system: DIGSA; experiment: Pre-emergence action against DIGSA; assay type: in vivo, Digitaria sanguinalis; conditions: dosage 320 g/ha, scored visually after 3 weeks vs untreated controls
Summary of the method: as §1

[10] = system: LOLRI; experiment: Post-emergence action against LOLRI; assay type: in vivo, Lolium rigidum; conditions: Lolium rigidum, 504 h, dosage 80 g/ha, visual assessment about 3 weeks after treatment vs untreated controls, read-out: Post-emergence action against LOLRI (herbicidal action in percent)
Summary of the method: as §2

[11] = system: LOLRI; experiment: Pre-emergence action against LOLRI; assay type: in vivo, Lolium rigidum; conditions: Lolium rigidum, 504 h, dosage 320 g/ha, scored visually after 3 weeks vs untreated controls, read-out: Pre-emergence action against LOLRI (herbicidal activity)
Summary of the method: as §1

[12] = system: HORMU; experiment: Pre-emergence action against HORMU; assay type: in vivo, Hordeum murinum; conditions: Hordeum murinum, 504 h, Dosage 320 g/ha
Summary of the method: as §1

[13] = system: LOLMU; experiment: Pre-emergence action against LOLMU; assay type: in vivo, Lolium multiflorum; conditions: Lolium multiflorum, 504 h, dosage 320 g/ha, scored visually after 3 weeks vs untreated controls, read-out: Pre-emergence action against LOLMU (herbicidal activity)
Summary of the method: as §1

[14] = system: HORMU; experiment: Post-emergence action against HORMU; assay type: in vivo, Hordeum murinum; conditions: dosage 80 g/ha
Protocol: Seeds of monocotyledonous and dicotyledonous weed and crop plants are laid out in sandy loam soil in wood-fiber pots, covered with soil and cultivated in a greenhouse under good growth conditions. 2 to 3 weeks after sowing, the test plants are treated at the one-leaf stage. The compounds of the invention, formulated in the form of wettable powders (WP) or as emulsion concentrates (EC), are then sprayed onto the green parts of the plants in the form of an aqueous suspension or emulsion at a water application rate equating to […], with addition of 0.2% wetting agent. After the test plants have been left to stand in the greenhouse under optimal growth conditions for about 3 weeks, the action of the preparations is assessed visually in comparison to untreated controls (herbicidal action in percent (%): 100% activity=the plants have died, 0% activity=like control plants). […] At the same time, inventive compounds leave Gramineae crops such as barley, wheat, rye, millet/Sorghum, corn or rice virtually undamaged when applied post-emergence, even at high active ingredient dosages. In addition, some substances are also harmless to dicotyledonous crops such as soya, cotton, oilseed rape, sugar beet or potatoes. Some of the compounds according to the invention have high selectivity and are therefore suitable for controlling unwanted vegetation in agricultural crops by the post-emergence method. The data of Tables B18 to B34 below illustrate, in an exemplary manner, the […] herbicidal action of the compounds according to the invention, the herbicidal activity being stated in percent.

Structure (SMILES) | pest or weed control at 320 g/ha [1] [%] | pest or weed control at 80 g/ha [2] [%] | pest or weed control at 80 g/ha [3] [%] | pest or weed control at 80 g/ha [4] [%] | pest or weed control at 320 g/ha [5] [%] | pest or weed control at 320 g/ha [7] [%] | pest or weed control at 80 g/ha [10] [%] | pest or weed control at 320 g/ha [11] [%] | pest or weed control at 320 g/ha [6] [%] | pest or weed control at 320 g/ha [12] [%] | pest or weed control at 320 g/ha [13] [%] | further results
Cc1c(C(=O)Nc2nnnn2C)ccc(S(C)(=O)=O)c1C(=O)C1CC1 [1-9] | 90 | 90 | 90 | 90 | 80 | 100 | – | – | – | – | – | Herbicidal efficacy against CYPES ([5]; Table V6, pre-emergence): 70; Herbicidal efficacy against POLCO ([6]; Table V6, pre-emergence): 40; Herbicidal efficacy against SETVI ([7]; Table V9, pre-emergence, 80 g of a.i./ha): 100
CCCC(=O)c1c(C(F)(F)F)ccc(C(=O)Nc2nnnn2C)c1C [1-16] | 90 | 90 | 100 | – | – | 100 | 80 | 100 | 80 | 90 | – | Post-emergence action against DIGSA (herbicidal action in percent) [8]: 90%; Pre-emergence action against DIGSA (herbicidal activity) [9]: 100%
COc1c(C(=O)Nc2nnnn2C)ccc(C(F)(F)F)c1C(=O)C1CC1 [1-50] | 100 | 90 | 90 | 90 | 100 | 100 | – | – | 90 | – | 100 | –
CSc1c(C(=O)Nc2nnnn2C)ccc(C(F)(F)F)c1C(C)=O [1-58] | 100 | 100 | 100 | 80 | 100 | 100 | – | – | 100 | – | 90 | –
CSc1c(C(=O)Nc2nnnn2C)ccc(C(F)(F)F)c1C(=O)C1CC1 [1-60] | 100 | 100 | 100 | – | 100 | 100 | 100 | 100 | 100 | 100 | – | Post-emergence action against HORMU [14]: 100
CC(=O)c1c(S(C)(=O)=O)ccc(C(=O)Nc2nnnn2C)c1Cl [1-127] | 100 | 100 | 100 | – | 90 | 90 | – | – | 90 | – | 80 | Herbicidal efficacy against ALOMY ([1]; Table V1, pre-emergence): 80; Herbicidal efficacy against ALOMY ([1]; Table V3, pre-emergence): 80; Herbicidal efficacy against ECHCG ([2]; 5 g of a.i./ha): 100; Herbicidal efficacy against ECHCG ([2]; 20 g of a.i./ha): 100; Herbicidal efficacy against AMARE ([3]; Table V14, post-emergence): 100; Herbicidal efficacy against CYPES ([5]; Table V1, pre-emergence): 90; Herbicidal efficacy against CYPES ([5]; Table V3, pre-emergence): 90; Herbicidal efficacy against POLCO ([6]; Table V1, pre-emergence): 70
Cn1nnnc1NC(=O)c1ccc(S(C)(=O)=O)c(C(=O)C2CC2)c1Cl [1-129] | 100 | 90 | 100 | 80 | 100 | 100 | – | – | 80 | – | 100 | Herbicidal efficacy against ALOMY ([1]; Table V3, pre-emergence): 100; Herbicidal efficacy against AMARE ([3]; Table V15, post-emergence): 100; Herbicidal efficacy against CYPES ([5]; Table V3, pre-emergence): 100; SETVI ([7]; Table V2, pre-emergence, 20 g of a.i./ha): 90
CC(=O)c1c(C(F)(F)F)ccc(C(=O)Nc2nnnn2C)c1Cl [1-137, 3-acetyl-2-chloro-N-(1-methyl-1H-tetrazol-5-yl)-4-(trifluoromethyl)benzamide] | 90 | 90 | 90 | 100 | 100 | 100 | – | – | 100 | – | 100 | –
Cn1nnnc1NC(=O)c1ccc(C(F)(F)F)c(C(=O)C2CC2)c1Cl [1-141] | 100 | 100 | 100 | 100 | 100 | 100 | – | – | 80 | – | 100 | –
CC(=O)c1c(C(F)F)ccc(C(=O)Nc2nnnn2C)c1Cl [1-164] | 100 | 100 | 100 | – | 100 | 100 | 90 | 100 | 100 | 90 | – | –
CCC(=O)c1c(C(F)F)ccc(C(=O)Nc2nnnn2C)c1Cl [1-165] | 100 | 90 | 90 | – | – | 100 | 80 | 100 | 90 | 90 | – | Post-emergence action against DIGSA (herbicidal action in percent) [8]: 100%; Pre-emergence action against DIGSA (herbicidal activity) [9]: 100%
